Measured values published in publication PMC4393105, “tRNA^Glu Increases the Affinity of Glutamyl-tRNA Synthetase for Its Inhibitor Glutamyl-Sulfamoyl-Adenosine, an Analogue of the Aminoacylation Reaction Intermediate Glutamyl-AMP: Mechanistic and Evolutionary Implications” (PLoS ONE, 2015).
Where “and” joins values, the source holds several entries; their conditions need not be identical. Equal entries are not always repeated.

Key:
murine hepatic GluRS = test system: murine hepatic GluRS; parameters: method as in PMID 15895686; details: cited from earlier work
[1] = target: T1, E. coli GluRS + E. coli tRNA^Glu (Escherichia coli, UniProt P04805); experiment: Isothermal titration microcalorimetry of Glu-AMS binding to GluRS in the presence of tRNA^Glu; details: for Kd: Kd = 1/Kb
T1 construct: His tag (histidine tag) (C); made in house
Protocol: (§1) Overproduction and purification of E. coli GluRS were performed as previously described with the following modifications. A C-terminal histidine-tagged GluRS was used instead of the N-terminal tagged one. The overproduction was induced overnight at 30°C with 1 mM IPTG.
(§2) Overproduction and purification of E. coli tRNA^Glu-enriched total tRNA was done as described. […] Saccharomyces cerevisiae tRNA^Phe, used as a negative control, was purchased from Sigma-Aldrich (cat No: R4018).
(§3) The GluRS solution with or without tRNA was dialyzed overnight in a D-tube dialyzer (Novagen) against 2 L of dialysis buffer (50 mM HEPES-KOH, pH 7.2, 10 mM MgCl2) at 4°C with light stirring. The next morning, the dialyzed solution was recovered and the volume adjusted by adding dialysis buffer to obtain the desired concentration (typically 9 μM GluRS and 11 μM tRNA^Glu). This solution was kept on ice until use. Glu-AMS was diluted in the dialysis buffer to obtain a final concentration of 90 μM. All buffers and solutions were degased with stirring under vacuum. The microcalorimetry experiments were carried out in a VP-ITC 100 microcalorimeter (MicroCal, GE Healthcare) using deionized water as an internal reference for all assays. VPViewer ITC 2000 and Origin v 5.0 softwares (Microcal Software, Inc) were used for data collection and analysis, respectively.
To measure the thermodynamic parameters of the interaction between Glu-AMS and GluRS, in the presence and in the absence of tRNA, a solution containing 9 μM GluRS with or without a stoichiometric excess of tRNA^Glu or S. cerevisiae tRNA^Phe (Table 1) was placed in the sample cell of the microcalorimeter. The following conditions were used for all tests: reference power was set at 12 μcal/s and stirring at 300 rpm, the “high” feedback mode and “No check Temp”, “Fast Equil” and “Auto” ITC equilibration options were selected. […] After a first injection of 1 μL over 2 s, a series of 39 injections (7.4 μL over 14.8 s) with 240 s between injections was performed. Injections of Glu-AMS in GluRS alone, GluRS•tRNA^Glu or GluRS•tRNA^Phe, were performed at 30°C (303 K), and done in duplicate. Injections of Glu-AMS in GluRS were also performed at 20°C and 37°C (293 and 310 K): 14 injections (20 μL over 40 s) followed the first injection of 1 μL. Each temperature was tested in duplicate, and in triplicate at 37°C.
(§4) The following nomenclature was used to describe the interaction at equilibrium between Glu-AMS and either GluRS or a GluRS•tRNA complex: GluRS•Glu-AMS↔GluRS+[…] Kd=[GluRS]×[Glu-AMS]/[GluRS•Glu-AMS] 1/Kd=Kb (binding constant, sometimes referred to as Ka).

[2] = target: T2, E. coli GluRS + S. cerevisiae tRNA^Phe (Escherichia coli, UniProt P04805); experiment: Isothermal titration microcalorimetry of Glu-AMS binding to GluRS in the presence of non-cognate tRNA^Phe; details: for Kd: Kd (dissociation constant), Kd = 1/Kb
T2 construct: His tag (histidine tag) (C); made in house
Protocol: as §1, §2, §3
To measure the thermodynamic parameters of the interaction between Glu-AMS and GluRS, in the presence and in the absence of tRNA, a solution containing 9 μM GluRS with or without a stoichiometric excess of tRNA^Glu or S. cerevisiae tRNA^Phe (Table 1) was placed in the sample cell of the microcalorimeter. The following conditions were used for all tests: reference power was set at 12 μcal/s and stirring at 300 rpm, the “high” feedback mode and “No check Temp”, “Fast Equil” and “Auto” ITC equilibration options were selected. The 90 μM Glu-AMS solution was loaded in the injection syringe. After a first injection of 1 μL over 2 s, a series of 39 injections (7.4 μL over 14.8 s) with 240 s between injections was performed. Injections of Glu-AMS in GluRS alone, GluRS•tRNA^Glu or GluRS•tRNA^Phe, were performed at 30°C (303 K), and done in duplicate. Injections of Glu-AMS in GluRS were also performed at 20°C and 37°C (293 and 310 K): 14 injections (20 μL over 40 s) followed the first injection of 1 μL. Each temperature was tested in duplicate, and in triplicate at 37°C.
as §4

[3] = single ITC run, tRNA^Glu 5.3 µM, 303 K, [ligand] 45 µM, [GluRS] 2.636 µM
[4] = single ITC run, tRNA^Glu 10.6 µM, 303 K, [ligand] 90 µM, [GluRS] 5.792 µM
[5] = with E. coli tRNA^Glu, 30°C, weighted mean of ITC runs
[6] = single ITC run, tRNA^Phe 11.23 µM, 303 K, [ligand] 90 µM, [GluRS] 2.198 µM
[7] = single ITC run, tRNA^Phe 11.23 µM, 303 K, [ligand] 90 µM, [GluRS] 2.434 µM
[8] = with S. cerevisiae tRNA^Phe, 30°C, weighted mean of ITC runs

T2 sequence (P04805 whole entry): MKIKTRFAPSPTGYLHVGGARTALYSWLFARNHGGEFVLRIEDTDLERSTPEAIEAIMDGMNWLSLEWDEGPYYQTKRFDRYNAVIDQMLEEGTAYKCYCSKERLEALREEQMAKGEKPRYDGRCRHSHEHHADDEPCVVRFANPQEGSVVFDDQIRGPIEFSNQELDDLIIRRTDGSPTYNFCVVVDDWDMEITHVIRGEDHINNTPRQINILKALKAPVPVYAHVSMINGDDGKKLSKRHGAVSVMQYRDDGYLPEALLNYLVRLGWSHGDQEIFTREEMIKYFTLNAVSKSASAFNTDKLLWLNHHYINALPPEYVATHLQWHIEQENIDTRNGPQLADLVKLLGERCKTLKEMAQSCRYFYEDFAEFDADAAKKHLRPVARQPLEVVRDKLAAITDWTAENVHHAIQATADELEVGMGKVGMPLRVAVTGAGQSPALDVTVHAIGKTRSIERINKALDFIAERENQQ
T1 sequence (P04805 whole entry): as above

## Nc1ncnc2c1ncn2[C@@H]1O[C@H](COS(=O)(=O)NC(=O)[C@@H](N)CCC(=O)O)[C@@H](O)[C@H]1O [Glu-AMS, 5’-O-[N-(L-glutamyl)sulfamoyl]adenosine]
Murine hepatic GluRS
  times less efficient against murine hepatic GluRS than against E. coli GluRS: 25 times
[1]; K d aa-AMP aaRS, in the presence of tRNA^Glu
  Kd: 7 nM
[1]; Kd (dissociation constant), single ITC run, tRNA^Glu 5.3 µM, 303 K, [ligand] 45 µM, [GluRS] 2.636 µM
  Kd: 5.49 ± 1.35 nM
[1]; Kd (dissociation constant), single ITC run, tRNA^Glu 10.6 µM, 303 K, [ligand] 90 µM, [GluRS] 5.792 µM
  Kd: 8.96 ± 2.26 nM
[1]; [3]
  -TΔSb: -2908 ± 33
  n (stoichiometry coefficient): 1.004 ± 0.006
  ΔGb (reaction energy): -11.452 kcal/mol
  ΔHb (reaction enthalpy): -8.537 ± 0.097 kcal/mol
  ΔSb (reaction entropy): 9.596 ± 0.11 cal/mol·K
[1]; [4]
  -TΔSb: -3548 ± 38
  n (stoichiometry coefficient): 1.000 ± 0.006
  ΔGb (reaction energy): -11.156 kcal/mol
  ΔHb (reaction enthalpy): -7.61 ± 0.081 kcal/mol
  ΔSb (reaction entropy): 11.71 ± 0.12 cal/mol·K
[1]; [5]
  -TΔSb: -3.186 ± 0.025 kcal/mol
  n (stoichiometry coefficient): 1.0018 ± 0.0041
  ΔHb (reaction enthalpy): -7.99 ± 0.062 kcal/mol
  ΔSb (reaction entropy): 10.5 cal/mol·K and 10.52 ± 0.08 cal/mol·K
[1]; with versus without tRNA^Glu
  fold decrease of the dissociation constant Kd in the presence of tRNA^Glu: 50 fold
[1]; with versus without tRNA^Glu, 30°C
  free energy of binding difference observed in the presence of tRNA^Glu: about 2.2 kcal/mol
[2]; [6]
  Kd: 478 ± 86 nM
  -TΔSb: -3875 ± 242
  n (stoichiometry coefficient): 0.9925 ± 0.048
  ΔGb (reaction energy): -8.762 kcal/mol
  ΔHb (reaction enthalpy): -4.882 ± 0.305 kcal/mol
  ΔSb (reaction entropy): 12.79 ± 0.80 cal/mol·K
[2]; [7]
  Kd: 987 ± 190 nM
  -TΔSb: -1658 ± 172
  n (stoichiometry coefficient): 0.9835 ± 0.0809
  ΔGb (reaction energy): -8.326 kcal/mol
  ΔHb (reaction enthalpy): -6.657 ± 0.689 kcal/mol
  ΔSb (reaction entropy): 5.472 ± 0.57 cal/mol·K
[2]; versus absence of tRNA
  affinity of GluRS for Glu-AMS in the presence of the non-cognate tRNA^Phe: not altered
[2]; with S. cerevisiae tRNA^Phe, 30°C, simple average, ΔGb = -RT Ln Kb
  ΔGb (reaction energy): -8.544 ± 0.309 kcal/mol
[2]; [8]
  -TΔSb: -2.398 ± 0.14 kcal/mol
  n (stoichiometry coefficient): 0.9902 ± 0.0410
  ΔHb (reaction enthalpy): -5.173 ± 0.279 kcal/mol
  ΔSb (reaction entropy): 7.92 ± 0.46 cal/mol·K
